Patent US20100048634A1, “METHOD FOR TREATING APATHY SYNDROME” (priority 2005, published 2010)

How the values were obtained:
Format in all cases: in vivo, human
[1] = test system: post-stroke patients having moderate to severe depression; test: Apathy Scale (AS) in post-stroke patients having moderate to severe depression; conditions: 600 or 900 mg/day oral, 12 weeks, especially high dose
Description: Apathy Scale (AS) is an abbreviated version of the AES. Items and scoring of Papthy Scale can be found, for example, at Starkstein, et al., J Neuropsychiatry Clin. Neurosciences, 4: 134-139 (1992).
(§1) In 151 post-stroke patients having moderate to severe depression, the intervention-free data of Apathy Scale (AS), as a valid measure of apathy, and of Hamilton Rating Scale of Depression (HAM-D) and Beck Depression Inventory (BDI), as valid measures of depression, were collected and analyzed using the method of confirmatory factor analysis. HAM-D and BDI are fully validated and are widely used measures of the severity of depression. HAM-D (Hamilton, J Neurol. Neurosurg. Psychiatry. 23:56-62, 1960) is rated by a professional. BDI (Arch Gen Psychiatry. 4:561-571, 1961) is rated by a patient.
(§2) The 151 patients, who were evaluated at least once after treatment, included the 103 patients studied in Example 1. The 151 patients were divided in three groups each orally receiving placebo (51 patients) or nefiracetam at 600 mg/day (54 patients) or nefiracetam at 900 mg/day (46 patients).
(§3) The data at the end of 12 weeks were analyzed and summarized as follows: […]

[2] = test system: post-stroke patients; test: Controlled clinical trial against placebo, symbol digit modality test (SDMT), cognitive function; conditions: for change in cognitive function (SDMT): at 4 weeks, placebo 3.2; for average improvement in cognitive function (SDMT): last visit, placebo 4.2; for improvement in the SDMT scale: patients with cortical strokes, week 12, placebo 2.7
Description: Cognitive function can be measured using a tool called the symbol digit modality test (SDMT). In this test, patients have a legend which links each digit to a specific graphical, non-text symbol. The patients have a pre-specified, fixed period of time to match, in writing, as many digits to a list of symbols as possible. The number of correctly matched digits to symbols provides a measure of a range of cognitive functions, including executive function, attention, memory, and motor function (Joy, et.al. Arch Clin Neuropsychol. 19:759-67, 2004; Joy, et.al. Clin Neuropsychol. 17:182-94; 2003)
(§4) In this trial, nefiracetam was administered orally to 103 post-stroke patients, who all have some degree of depression, for up to twelve weeks after the vascular event. Concurrently, 56 patients received placebo (placebo group). Of the 103 post-stroke patients treated with nefiracetam, 55 received 600 mg daily (600 mg group), and 48 received 900 mg daily (900 mg group). The three groups of patients were followed for up to 12 weeks, and evaluated at the end of week 4, the end of week 8, and the end of week 12, by measuring the Apathy Evaluation Scale (a symptom scale for measuring apathy), and by measuring SDMT (for measuring cognitive function).

[3] = test system: post-stroke patients; test: Controlled clinical trial against placebo, Apathy Evaluation Scale
Experimental: Apathy Evaluation Scale (AES) is used as a measure of apathy severity. Items and factor structure of AES are listed in Marin, et al. (Psychiatry Res. 1991; 38(2):143-62). The assessment, the impairment, as well as and the need of recovery of apathy and cognitive function after stroke are illustrated by Robert G. Robinson “The Clinical Neuropsychiatry of Stroke”, 1998, Cambridge University Press, pages 143, 222-225 and 292-293.
as §4

[4] = test system: post-stroke patients having moderate to severe depression; test: Hamilton Rating Scale of Depression (HAM-D) in post-stroke patients having moderate to severe depression; conditions: 600 or 900 mg/day oral; 12 weeks; consistent across various severity of baseline apathy
Description: as §1, §2, §3

[5] = 600 and 900 mg daily oral, up to 12 weeks

Question: Cc1cccc(C)c1NC(=O)CN1CCCC1=O [nefiracetam] was tested. Which “reduction in apathy measured by the Apathy Scale versus placebo (in words)” value ([1]; consistent across moderate to severe and severe depression) did it give?
Answer: more reduction in apathy than did patients on placebo

Question: What about the “reduction in apathy measured by the Apathy Scale versus placebo (in words)” value ([1]; consistent across various severity of baseline apathy) of the same molecule?
Answer: more reduction in apathy than did patients on placebo

Question: What about the “change in cognitive function (SDMT)” value ([2]; 600 mg daily oral) of the same molecule?
Answer: 4.1 point

Question: And the “average improvement in cognitive function (SDMT)” value ([2]; 600 mg daily oral)?
Answer: 5.7 points

Question: And the “improvement in the SDMT scale” value ([2]; 600 mg daily oral)?
Answer: 7 points

Question: And the “change in cognitive function (SDMT)” value ([2]; 900 mg daily oral)?
Answer: 4.4 point

Question: And the “average improvement in cognitive function (SDMT)” value ([2]; 900 mg daily oral)?
Answer: 6.6 points

Question: What about the “improvement in the SDMT scale” value ([2]; 900 mg daily oral) of the same molecule?
Answer: 14.2 points

Question: And the “improvements in cognitive function as measured by the SDMT (in words)” value [2, 5]?
Answer: dose-dependent and time-dependent improvements in cognitive function

Question: And the “improvement in apathy (Apathy Evaluation Scale)” value ([3]; 600 mg daily oral, at 4 weeks, placebo 1.4)?
Answer: 1.9 point

Question: What about the “average improvement in apathy (Apathy Evaluation Scale)” value (“average improvement in apathy” below) ([3]; 600 mg daily oral, cortical stroke patients, last visit carried forward, placebo 1.0) of the same molecule?
Answer: 3.4

Question: What about the “improvement in apathy (Apathy Evaluation Scale)” value ([3]; 600 mg daily oral, cortical strokes and significant baseline apathy (greater than 18), last visit, placebo 5.4) of the same molecule?
Answer: 9.4 points

Question: What about the “average improvement in apathy” value ([3]; 600 mg daily oral, last visit (12 weeks), placebo 1.4) of the same molecule?
Answer: 2.1 points

Question: What about the “average improvement in apathy” value ([3]; 600 mg daily oral, patients treated within 28 days of the stroke, placebo 0.6) of the same molecule?
Answer: 1.3 points

Question: And the “improvement in apathy (Apathy Evaluation Scale)” value ([3]; 900 mg daily oral, at 4 weeks, placebo 1.4)?
Answer: 1.9 point

Question: And the “average improvement in apathy” value ([3]; 900 mg daily oral, cortical stroke patients, last visit carried forward, placebo 1.0)?
Answer: 5.2 points

Question: And the “improvement in apathy (Apathy Evaluation Scale)” value ([3]; 900 mg daily oral, cortical strokes and significant baseline apathy (greater than 18), last visit, placebo 5.4)?
Answer: 11.7 points

Question: What about the “average improvement in apathy” value ([3]; 900 mg daily oral, last visit (12 weeks), placebo 1.4) of the same molecule?
Answer: 3.4 points

Question: What about the “average improvement in apathy” value ([3]; 900 mg daily oral, patients treated within 28 days of the stroke, placebo 0.6) of the same molecule?
Answer: 6.1 points

Question: And the “change in apathy syndrome in comparison to the placebo group (in words)” value [3, 5]?
Answer: dose-dependent and time-dependent change in apathy syndrome

Question: And the “reduction in depression measured by HAM-D versus placebo (in words)” value [4]?
Answer: patients on placebo showed slightly more reduction in depression than did patients on active treatment
